Square brackets hold non-standard residues; d marks the D form. Ends that are not written are not given here. pGlu = O=C1CC[C@@H](C(=O)O)N1; Nle = CCCC[C@H](N)C(=O)O
Each substance was assayed on bombesin receptor (assay: competitive binding assay, 125I-Bombesin, rat brain membranes). Conditions: not given.
Description: Rat brain membranes were utilized as the source of bombesin receptor. The competitive binding assay was performed using a procedure as described by Moody T W, Perk C B, Rivier J, Brown, M R. (Proc Natl Acad Sci USA. 75:5372-5376, […]) and adapted to a 96 well format. An aliquot of membranes taken in assay buffer (50 mM Tris and HCl, pH 7.4 containing 1 mg/mL BSA and 2 μg/mL bacitracin) was incubated with 0.01 nM of ^125I-Bombesin with or without varying concentrations of the test compound for 60 min at 4° C. The incubation was terminated by rapid filtration of the assay mixture, followed by washing the filters with ice-cold buffer. The filters were dried and counted in a gamma counter for retained radioactivity. Non-specific binding was measured by including 1 μM Bombesin in the assay tube. The assay was performed in triplicate and results calculated to determine percentage inhibition of the ^125I-Bombesin binding to its receptors by a test compound. The parent polypeptide is shown in Table 6, with metallopeptides having Cys inserted as shown.

Substance | binding to bombesin receptor, in words
D-Phe-Gln-Trp-Ala-Cys-Gly-His-Leu-Leu-NH2 ([dF]QWACGHLL-NH2; also: oxorhenium(V) N3S1 tetradentate complex via Cys) [9-5] | least activity

Same assay, conditions: inhibition of 0.01 nM 125I-Bombesin binding; rat brain membranes; test concentration not given

Substance | % Inhibition [%]
Ala-Val-Cys-His-Leu-Leu-NH2 (AVCHLL-NH2; not fully specified (bridges); printed as Ala-Val-Cys-His-Leu-Leu-NH2; also: oxorhenium(V) N3S1 chelate (Re(V)=O)) [11-6] | 6
Gln-Trp-Ala-Val-Cys-His-Leu-Leu-NH2 [11-4] (QWAVCHLL-NH2; not fully specified (bridges); printed as Gln-Trp-Ala-Val-Cys-His-Leu-Leu-NH2; also: oxorhenium(V) N3S1 chelate (Re(V)=O)) | 25
D-Phe-Gln-Trp-Val-Cys-Val-His-Leu-Leu-NH2 ([dF]QWVCVHLL-NH2; not fully specified (bridges); printed as D-Phe-Gln-Trp-Val-Cys-Val-His-Leu-Leu-NH2; also: oxorhenium(V) N3S1 chelate complex (Re=O)) [12-3] | 14
D-Phe-Gln-Trp-Ala-Cys-Val-His-Leu-Leu-NH2 ([dF]QWACVHLL-NH2; also: rhenium complex (oxorhenium(V) N3S1 chelate via Cys)) [12-2] | 3
Ala-Val-Cys-His-Leu-NH2 (AVCHL-NH2; not fully specified (bridges); printed as Ala-Val-Cys-His-Leu-NH2; also: oxorhenium(V) N3S1 chelate (Re(V)=O)) [11-9] | 7
Pyr-Gln-Arg-Leu-Gly-Asn-Gln-Trp-Cys-Ala-Val-Gly-His-Leu-Nle-NH2 ([pGlu]QRLGNQWCAVGHL[Nle]-NH2; numbers in words are those of the source; also: rhenium complex (oxorhenium(V) N3S1 tetradentate chelate via Re=O core)) [6-7] | 62
D-Phe-Gln-Trp-Ala-Val-Gly-His-Leu-Leu-Cys-NH2 ([dF]QWAVGHLLC-NH2; also: rhenium complex (oxorhenium(V) N3S1 chelate via Cys)) [8-1] | 39
Trp-Ala-Val-Cys-His-NH2 (WAVCH-NH2; not fully specified (bridges); printed as Trp-Ala-Val-Cys-His-NH2; also: oxorhenium(V) N3S1 chelate (Re=O) with Cys) [11-11] | −1
Ac-Ala-Gln-Cys-Leu-Gly-Asn-Gln-Trp-Ala-Val-Gly-His-Leu-Nle-NH2 (Ac-AQCLGNQWAVGHL[Nle]-NH2; also: oxorhenium(V) N3S1 tetradentate complex via Cys) [7-12] | 96
Pyr-Gln-Arg-Leu-Gly-Asn-Gln-Trp-Cys-Val-Gly-His-Leu-Nle-NH2 (QRLGNQWCVGHL; N-terminal pyroglutamate; C-terminal Nle-amide; printed: Gln-Arg-Leu-Gly-Asn-Gln-Trp-Cys-Val-Gly-His-Leu-) [7-6] | 91
Ac-Ala-Gln-Cys-Arg-Leu-Gly-Asn-Gln-Trp-Ala-Val-Gly-His-Leu-Nle-NH2 (Ac-AQCRLGNQWAVGHL[Nle]-NH2; also: oxorhenium(V) N3S1 tetradentate complex via Cys) [6-13] | 99
Pyr-Gln-Arg-Cys-Gly-Asn-Gln-Trp-Ala-Val-Gly-His-Leu-Nle-NH2 (QRCGNQWAVGHL; N-term pyroglutamate; Nle-NH2; rhenium complex; printed: Gln-Arg-Cys-Gly-Asn-Gln-Trp-Ala-Val-Gly-His-Leu-) [7-11] | 95
Ala-Val-Cys-NH2 (not fully specified (bridges); printed as Ala-Val-Cys-NH2; also: oxorhenium(V) N3S1 chelate (Re(V)=O)) [11-15] | 4
Ala-Val-Cys-His-NH2 (AVCH-NH2; not fully specified (bridges); printed as Ala-Val-Cys-His-NH2; also: oxorhenium(V) N3S1 chelate (Re(V)=O)) [11-12] | 5
D-Phe-Gln-Trp-Ala-Cys-Gly-His-Leu-Leu-NH2 ([dF]QWACGHLL-NH2; also: oxorhenium(V) N3S1 tetradentate complex via Cys) [9-5] | 17

Reference: patent US7351690B2, “Knockout identification of target-specific sites in peptides” (priority 2000, dated 2008)
